According to patent US11033538B2, “Dosing regimens for the treatment of lysosomal storage diseases using pharmacological chaperones” (Amicus Therapeutics, Inc., priority 2007, dated 2021):
Changes are numbered by the printed parent chain. Where two headings read alike, the source gives them in different places.

How the values were obtained:
N370S GCase = molecular target: T1, N370S GCase (Homo sapiens, UniProt P04062, N409S); assay: Expected N370S GCase accumulation parameters estimated from wild-type PK/PD
T1 sequence (P04062 40-536 N409S): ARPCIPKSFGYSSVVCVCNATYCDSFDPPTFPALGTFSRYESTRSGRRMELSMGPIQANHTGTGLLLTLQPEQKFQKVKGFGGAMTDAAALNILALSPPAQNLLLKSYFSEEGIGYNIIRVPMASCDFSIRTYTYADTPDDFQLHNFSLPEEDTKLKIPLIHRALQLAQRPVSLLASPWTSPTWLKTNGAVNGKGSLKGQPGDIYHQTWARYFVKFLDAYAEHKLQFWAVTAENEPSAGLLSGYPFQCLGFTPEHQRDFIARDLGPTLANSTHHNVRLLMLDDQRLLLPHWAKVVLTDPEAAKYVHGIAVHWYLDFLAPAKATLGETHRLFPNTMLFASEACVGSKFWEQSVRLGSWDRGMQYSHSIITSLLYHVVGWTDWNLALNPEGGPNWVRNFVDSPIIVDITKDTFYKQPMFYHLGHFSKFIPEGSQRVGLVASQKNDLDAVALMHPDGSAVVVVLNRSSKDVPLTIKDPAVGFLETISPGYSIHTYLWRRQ
Source text: For example, the most prevalent mutation in Gaucher disease is N370S. […] Accordingly, the rate of N370S turnover and the dose that will yield the maximum rate of GCase accumulation, can be estimated based on the differences in PK and PD parameters as compared with the wild-type enzyme: […]

[1] = Phase 1 multiple-dose study of IFG in healthy subjects, plasma pharmacokinetics; format: in vivo, human; settings: for Cmax / half-life / Tmax: human, plasma
Procedure: (§1) Blood samples were collected for pharmacokinetic analysis before the initial drug administration on Day 1, before the 5th, 6th and 7th doses (on Days 5, 6 and 7) (for Cmin determination), and at the following times after the 1st (Day 1) and 7th (Day 7) doses: 0.5, 1, 1.5, 2, 3, 4, 5, 6, 8, 10, 12, 15, 18, and 24 hours. […] In addition, blood samples were collected for pharmacodynamic measurements, i.e., analysis of WBC GCase levels, before dosing on Day 1, Day 3, Day 5, and Day 7, and at return visits on Day 9, Day 14 and Day 21.

GCase [2] = assay: GCase activity in Gaucher patient-derived fibroblasts, lymphoblasts and macrophages after IFG for 5 days; format: cell-based, human; settings: lymphoblast and macrophages
Source text: FIGS. 4A, 4B, and 4C. […] FIG. 4A depicts GCase activity in fibroblasts; FIG. 4B depicts GCase activity in lymphoblasts; and FIG. 4C depicts GCase activity in macrophages.

GCase [3] = molecular target: T2, GCase (Homo sapiens, UniProt P04062); assay: WBC GCase levels in healthy subjects receiving IFG (Phase 1 multiple-dose study); format: in vivo
T2 construct: endogenous in cells; host or cells: white blood cells of healthy subjects; healthy human skin fibroblasts
T2 sequence (P04062 40-536): T1 sequence (P04062 40-536 N409S) with S370N
Procedure: as §1

GCase [4] = assay: IFG in a mouse model of GD; format: in vivo
Source text: (§2) In the lysosome, when the pharmacological chaperone dissociates from the enzyme, the enzyme can perform its normal function, which is to catalyze the breakdown of glucosylceramide (GlcCer), the GCase substrate.

[5] = Example 10, pharmacokinetic/tissue distribution of isofagomine in rats; format: in vivo
Procedure: A single dose of 600 mg/kg of isofagomine was administered to rats via PO gavage. The concentration of isofagomine (μM) in plasma, liver, spleen and brain tissue was ascertained at regular time intervals at dosing (t=0) through 48 hours after dosing.

GCase [6] = assay: GCase levels and trafficking in vitro with IFG (fibroblasts of GD patients); format: cell-based, human
Source text: as §2

monkeys [7] = assay: Nonclinical toxicology studies of IFG, monkeys; format: in vivo
Source text: as §2

rats [8] = assay: Nonclinical toxicology studies of IFG, rats; format: in vivo
Source text: as §2

monkeys [9] = settings: monkey, in vivo
[10] = Pharmacokinetics of 1-Deoxynorjirimycin; settings: is believed
[11] = Clinical safety and tolerability of 1-Deoxynorjirimycin, single and repeat doses; format: in vivo, human
in vivo = settings: plasma
rats [12] = settings: rat, in vivo

For `OC[C@H]1CNC[C@@H](O)[C@@H]1O` [IFG, (2R,3R,4R)-5-(hydroxymethyl)-piperidine-3,4-diol], the “Daily dose that yields max rate of accumulation during Initial Enzyme Build-Up phase” value (N370S GCase) was no more than 150 to 300 mg, the “Max. rate of enzyme accumulation” value (N370S GCase) was roughly 0.35 Units/day and the “Max. rate of enzyme loss” value (N370S GCase) was roughly −0.17 Units/day. For the same molecule, the pharmacokinetic behavior ([1]; after 7 days of oral administration, 25, 75 or 225 mg daily) was “linear with dose”, the Cmax ([1]; oral, 25 mg) was 310 nM and the Cmax ([1]; oral, 150 mg) was 1700 nM. The half-life ([1]; oral, healthy subjects, multiple-dose study, SEM: 2 hr., read-out: plasma elimination half-life (converted)) was roughly 14 h, the half-life ([1]; oral, read-out: Half-life (converted)) was 14 h and the Tmax ([1]; oral, read-out: Tmax) was 3 h. For the same molecule, the Tmax ([1]; healthy subjects, multiple-dose study, 7 days oral, SEM: 0.6 hr., read-out: Mean plasma levels (Tmax) peaked) was roughly 3.4 h, the “IFG concentration range at which maximum chaperoning (Emax) occurs” value (GCase [2]) was 10 to 100 µM and the “Daily dose that yields max rate of accumulation during Initial Enzyme Build-Up phase” value (GCase [3]; Wild-type) was no more than 75 mg. For the same molecule, the “Max. rate of enzyme loss” value (GCase [3]; Wild-type) was roughly −3.5 Units/day, the “Max. rate of enzyme accumulation” value (GCase [3]; Wild-type, 1 unit = 1 nmole of 4-MU liberated per mg of total protein per hour) was roughly 7 Units/day and the “lowest daily dose that achieved the maximum rate of GCase accumulation over 7 days” value (GCase [3]; healthy subjects) was “about 75 mg”. The “maximum increase in GCase enzyme level in white blood cells” value (GCase [3]; healthy subjects, 7-day treatment) was “approximately 3.5 fold above baseline”, the “plasma levels of chitinase and IgG” value (GCase [4]) was “reduces plasma levels of chitinase and immunoglobulin G (IgG)” and the “tissue GCase activity” value (GCase [4]) was “increases tissue GCase activity”. For the same molecule, the “time after which levels fall below the GCASE Ki value” ([5]; liver and plasma, single 600 mg/kg PO) was 48 h, the “time for all tissues to attain levels exceeding the GCase enhancement EC50” value ([5]; single 600 mg/kg PO gavage, plasma, liver, spleen, brain) was no more than 15 min and the clearance from tissue ([5]; spleen and brain tissue) was “slower clearance”. For the same molecule, the “GCase trafficking to the lysosome” value (GCase [6]; fibroblasts of GD patients) was “increases GCase trafficking to the lysosome in fibroblasts of GD patients”, the “GCase total cellular enzyme levels” value (GCase [6]; in vitro) was “increases GCase total cellular enzyme levels in vitro” and the “safety and tolerability of repeated dosing” value (monkeys [7]) was “generally safe and well tolerated”. The “safety and tolerability of repeated dosing” value (rats [8]) was “generally safe and well tolerated”.

With `OC[C@H]1NC[C@H](O)[C@@H](O)[C@@H]1O` [1-Deoxynorjirimycin, (2R,3R,4R,5S)-2-(hydroxymethyl) piperidine-3,4,5-triol] the “tolerability in short-term safety studies” value (monkeys [9]) was “well tolerated”, the oral bioavailability [10] was “high oral bioavailability” and the “repeat doses (safe and well tolerated)” value ([11]; for 2 weeks) was “up to 2 grams per day”. The “severity of adverse events” value ([11]; patients receiving drug) was “mild or moderate in severity”, the “single doses appearing safe and well tolerated” value ([11]; single doses) was “up to 600 mg” and the half-life (in vivo) was 4 to 8 h. For the same molecule, the “tolerability in short-term safety studies” value (rats [12]) was “well tolerated”.
